Source: patent US20060234237A1 (priority 2004, published 2006)
Where a name gives a salt, the structure may show the parent alone.

Columns and labels:
Colo-201 = test: In vitro cytotoxicity MTS assay; format: cell-based; conditions: Homo sapiens, 72 hours, mean of 2 to 5 determinations
SW403 = test: In vitro cytotoxicity MTS assay; format: cell-based; conditions: Homo sapiens, SW-403, 72 hours, mean of 2 to 5 determinations, asterisk = sensitive
LS174T = test: In vitro cytotoxicity MTS assay; format: cell-based; conditions: Homo sapiens, 72 hours, mean of 2 to 5 determinations, asterisk = sensitive
CX-1 = test: In vitro cytotoxicity MTS assay; format: cell-based; conditions: Homo sapiens, 72 hours, mean of 2 to 5 determinations
CCD_33C0 = test: In vitro cytotoxicity MTS assay; format: cell-based; conditions: Homo sapiens, 72 hours, mean of 2 to 5 determinations, asterisk = sensitive
SW837 = test: In vitro cytotoxicity MTS assay; format: cell-based; conditions: Homo sapiens, 72 hours, mean of 2 to 5 determinations
Colo320HSR = test: In vitro cytotoxicity MTS assay; format: cell-based; conditions: Homo sapiens, COLO-320-HSR, 72 hours, mean of 2 to 5 determinations
CCD18Co = test: In vitro cytotoxicity MTS assay; format: cell-based; conditions: Homo sapiens, CCD-18Co, 72 hours, mean of 2 to 5 determinations
Colo320DM = test: In vitro cytotoxicity MTS assay
Method: (§4) The IC50 for each cell line was assessed by MTS assays. The average IC50 values along with standard deviations were calculated from two to five individual determinations for each cell line. […] The IC50 unit is μM.
(§5) Cytotoxicity was assessed in cells by MTS (3-(4,5-dimethylthiazol-2-yl)-5-(3-carboxymethoxyphenyl)-2-(4-sulphenyl)-2H-tetrazolium, inner salt) assay (T. L. Riss et al., 1992, Mol. Biol. Cell, 3 (Suppl.): 184a).
(§6) To carry out the assays, the colon cells were plated at 4,000 cell/well in 96 well microtiter plates and 24 hours later serial diluted drugs were added. […] The cells were incubated at 37° C. for 72 hours at which time the tetrazolium dye MTS (333 μg/ml final concentration) in combination with the electron coupling agent phenazine methosulfate (25 μM final concentration) was added. A dehydrogenase enzyme in live cells reduces the MTS to a form that absorbs light at 492 nm that can be quantified spectrophotometrically. The greater the absorbency, the greater the number of live cells. The results were expressed as an IC50, which is the drug concentration required to inhibit cell proliferation (i.e., absorbance at 450 mm) to 50% of that of untreated control cells. The mean IC50 and standard deviation (SD) from multiple tests for each cell line were calculated.

SW1417 = test: In vitro cytotoxicity MTS assay; format: cell-based; conditions: Homo sapiens, 72 hours, mean of 2 to 5 determinations
HCT8 = test: In vitro cytotoxicity MTS assay; format: cell-based; conditions: Homo sapiens, HCT-8, 72 hours, mean of 2 to 5 determinations
HCT116S542 = test: In vitro cytotoxicity MTS assay; format: cell-based; conditions: Homo sapiens, 72 hours, mean of 2 to 5 determinations
Sk-Co-1 = test: In vitro cytotoxicity MTS assay; format: cell-based; conditions: Homo sapiens, 72 hours, mean of 2 to 5 determinations
T84 = test: In vitro cytotoxicity MTS assay; format: cell-based; conditions: Homo sapiens, 72 hours, mean of 2 to 5 determinations
MIP = test: In vitro cytotoxicity MTS assay; format: cell-based; conditions: Homo sapiens, 72 hours, mean of 2 to 5 determinations
SW620 = test: In vitro cytotoxicity MTS assay; format: cell-based; conditions: Homo sapiens, SW-620, 72 hours, mean of 2 to 5 determinations
LOVO = test: In vitro cytotoxicity MTS assay; format: cell-based; conditions: Homo sapiens, 72 hours, mean of 2 to 5 determinations, asterisk = sensitive
Caco2 = test: In vitro cytotoxicity MTS assay; format: cell-based; conditions: Homo sapiens, Caco-2, 72 hours, mean of 2 to 5 determinations, asterisk = sensitive
HCT116 = test: In vitro cytotoxicity MTS assay; format: cell-based; conditions: Homo sapiens, HCT-116, 72 hours, mean of 2 to 5 determinations
Colo-205 = test: In vitro cytotoxicity MTS assay; format: cell-based; conditions: Homo sapiens, 72 hours, mean of 2 to 5 determinations
HT-29 = test: In vitro cytotoxicity MTS assay; format: cell-based; conditions: Homo sapiens, 72 hours, mean of 2 to 5 determinations
SW480 = test: In vitro cytotoxicity MTS assay
Method: as §4, §5, §6

[1] = system: CACO2 colon cancer cell line; conditions: serum starved, 20 ng/ml EGF, 0.5, 6 and 18 hours, vs media alone
Method: (§1) Control cells were treated with media alone. The expression profiling was performed, and data was analyzed using GeneChip® Expression Analysis software MAS 5.0 (Affymetrix, Santa Clara, Calif.).
(§2) The colon cells were grown using standard cell culture conditions: RPMI 1640 supplemented to contain 10% fetal bovine serum, 100 IU/ml penicillin, […] streptomycin, 2 mM L-glutamine and 10 mM Hepes (all from GibcoBRL, Rockville, Md.). RNA was isolated from 50-70% confluent cells or drug-treated cells using the RNeasy™ kits commercially available from Qiagen (Valencia, Calif.). Quality of the RNA was checked by measuring the 28s:18s ribosomal RNA ratio using Agilent 2100 bioanalyzer (Agilent, Technologies, Rockville, Md.). Concentration of total RNA was determined spectrophotometrically. 10 μg of total RNA from each cell line was used to prepare biotinylated probe according to the Affymetrix Genechip® Expression Analysis Technical Manual, 2001. Targets were hybridized to Affymetrix high density oligonucleotide array human HG-U133 set chips (Affymetrix, Santa Clara, Calif.). Arrays were then washed, and stained using the GeneChip Fluidics station according to the manufacture's instructions. The HG-U133 set consisting of two GeneChip® arrays contains nearly 45,000 probe sets representing more than 39,000 transcripts derived from approximately 33,000 well-substantiated human genes.
(§3) For the EGF induction studies, the colon cell line CACO2 and the lung cancer H292 cell line were washed 2×PBS, and the media was changed to RPMI without serum. The next day the cells were treated with 20 ng/ml EGF, and eventually lysed for RNA isolation 0.5, 6 and 18 hours post treatment. Gene expression was profiled as described below.

[2] = system: H292 lung cancer cell line; conditions: serum starved, 20 ng/ml EGF, 0.5, 6 and 18 hours, vs media alone
Method: as §1, §2, §3

**Q.** How did the IC50 (Colo-201) turn out when `C#Cc1cccc(Nc2ncnc3cc(OCCOC)c(OCCOC)cc23)c1` [BMS-461453, erlotinib HCl] was run?
**A.** The IC50 was greater than 10 µM.

**Q.** And the IC50 (SW403)?
**A.** The IC50 was 5.7 µM.

**Q.** What about the IC50 (LS174T) of the same compound?
**A.** Its IC50 is 3.5 µM.

**Q.** What about the IC50 (CX-1) of the same compound?
**A.** Its IC50 is greater than 10 µM.

**Q.** And the IC50 (CCD_33C0)?
**A.** Its IC50 is 2 µM.

**Q.** What about the IC50 (SW837) of the same compound?
**A.** The IC50 was 7.2 µM.

**Q.** And the IC50 (Colo320HSR)?
**A.** The IC50 was greater than 10 µM.

**Q.** And the IC50 (CCD18Co)?
**A.** Its IC50 is 7.1 µM.

**Q.** What about the “Sensitivity of cell line to the EGFR inhibitor” value (Colo320DM; COLO320_DM, does not express EGFR) of the same compound?
**A.** Its value is “resistant”.

**Q.** And the IC50 (Colo320DM; Homo sapiens, COLO 320DM, 72 h)?
**A.** Its IC50 is greater than 10 µM.

**Q.** And the IC50 (SW1417)?
**A.** The IC50 was greater than 10 µM.

**Q.** What about the IC50 (HCT8) of the same compound?
**A.** Its IC50 is greater than 10 µM.

**Q.** And the IC50 (HCT116S542)?
**A.** Its IC50 is greater than 10 µM.

**Q.** And the IC50 (Sk-Co-1)?
**A.** The IC50 was 9 µM.

**Q.** And the IC50 (T84)?
**A.** The IC50 was greater than 10 µM.

**Q.** What about the IC50 (MIP) of the same compound?
**A.** Its IC50 is 9.7 µM.

**Q.** And the IC50 (SW620)?
**A.** Its IC50 is greater than 10 µM.

**Q.** And the IC50 (LOVO)?
**A.** Its IC50 is 2.3 µM.

**Q.** What about the IC50 (Caco2) of the same compound?
**A.** The IC50 was 5.5 µM.

**Q.** And the IC50 (HCT116)?
**A.** The IC50 was greater than 10 µM.

**Q.** And the IC50 (Colo-205)?
**A.** Its IC50 is greater than 10 µM.

**Q.** What about the IC50 (HT-29) of the same compound?
**A.** The IC50 was greater than 10 µM.

**Q.** What about the IC50 (SW480; Homo sapiens, SW480, 72 h) of the same compound?
**A.** The IC50 was greater than 10 µM.

**Q.** What about the “Sensitivity of cell line to the EGFR inhibitor” value (SW480; SW480, expressing EGFR) of the same compound?
**A.** Its value is “insensitive”.

**Q.** How did the “Expression of EphA1 (EPHA1) stimulated” value [1] turn out when epidermal growth factor [EGFR] was run?
**A.** Its value is “Expression stimulated 2 fold by”.

**Q.** And the “Expression of 3-hydroxy-3-methylglutaryl-Coenzyme A synthase 2 stimulated” value [2]?
**A.** The value was “Expression stimulated 3 fold by”.

**Q.** What about the “Expression of BTG family, member 2 (BTG2) stimulated” value [2] of the same compound?
**A.** Its value is “Expression stimulated 2 fold by”.

**Q.** And the “Expression of cystic fibrosis transmembrane conductance regulator (CFTR) stimulated” value [2]?
**A.** The value was “Expression stimulated 2 fold by”.

**Q.** And the “Expression of prostaglandin G/H synthase and cyclooxygenase stimulated” value [2]?
**A.** Its value is “Expression stimulated 6 fold by”.

**Q.** And the “Expression of serine (or cysteine) proteinase inhibitor, clade B (ovalbumin), member 5 (SERPINB5) stimulated” value [2]?
**A.** Its value is “Expression stimulated 2 fold by”.
